In paper PMC3249170 (Cellular and Molecular Life Sciences: CMLS, 2011):

Biological target: actomyosin-7a (acto•M7a) (Homo sapiens, UniProt Q13402)
Assay: biochemical

Chain of actomyosin-7a (acto•M7a) (Q13402 whole entry, looked up): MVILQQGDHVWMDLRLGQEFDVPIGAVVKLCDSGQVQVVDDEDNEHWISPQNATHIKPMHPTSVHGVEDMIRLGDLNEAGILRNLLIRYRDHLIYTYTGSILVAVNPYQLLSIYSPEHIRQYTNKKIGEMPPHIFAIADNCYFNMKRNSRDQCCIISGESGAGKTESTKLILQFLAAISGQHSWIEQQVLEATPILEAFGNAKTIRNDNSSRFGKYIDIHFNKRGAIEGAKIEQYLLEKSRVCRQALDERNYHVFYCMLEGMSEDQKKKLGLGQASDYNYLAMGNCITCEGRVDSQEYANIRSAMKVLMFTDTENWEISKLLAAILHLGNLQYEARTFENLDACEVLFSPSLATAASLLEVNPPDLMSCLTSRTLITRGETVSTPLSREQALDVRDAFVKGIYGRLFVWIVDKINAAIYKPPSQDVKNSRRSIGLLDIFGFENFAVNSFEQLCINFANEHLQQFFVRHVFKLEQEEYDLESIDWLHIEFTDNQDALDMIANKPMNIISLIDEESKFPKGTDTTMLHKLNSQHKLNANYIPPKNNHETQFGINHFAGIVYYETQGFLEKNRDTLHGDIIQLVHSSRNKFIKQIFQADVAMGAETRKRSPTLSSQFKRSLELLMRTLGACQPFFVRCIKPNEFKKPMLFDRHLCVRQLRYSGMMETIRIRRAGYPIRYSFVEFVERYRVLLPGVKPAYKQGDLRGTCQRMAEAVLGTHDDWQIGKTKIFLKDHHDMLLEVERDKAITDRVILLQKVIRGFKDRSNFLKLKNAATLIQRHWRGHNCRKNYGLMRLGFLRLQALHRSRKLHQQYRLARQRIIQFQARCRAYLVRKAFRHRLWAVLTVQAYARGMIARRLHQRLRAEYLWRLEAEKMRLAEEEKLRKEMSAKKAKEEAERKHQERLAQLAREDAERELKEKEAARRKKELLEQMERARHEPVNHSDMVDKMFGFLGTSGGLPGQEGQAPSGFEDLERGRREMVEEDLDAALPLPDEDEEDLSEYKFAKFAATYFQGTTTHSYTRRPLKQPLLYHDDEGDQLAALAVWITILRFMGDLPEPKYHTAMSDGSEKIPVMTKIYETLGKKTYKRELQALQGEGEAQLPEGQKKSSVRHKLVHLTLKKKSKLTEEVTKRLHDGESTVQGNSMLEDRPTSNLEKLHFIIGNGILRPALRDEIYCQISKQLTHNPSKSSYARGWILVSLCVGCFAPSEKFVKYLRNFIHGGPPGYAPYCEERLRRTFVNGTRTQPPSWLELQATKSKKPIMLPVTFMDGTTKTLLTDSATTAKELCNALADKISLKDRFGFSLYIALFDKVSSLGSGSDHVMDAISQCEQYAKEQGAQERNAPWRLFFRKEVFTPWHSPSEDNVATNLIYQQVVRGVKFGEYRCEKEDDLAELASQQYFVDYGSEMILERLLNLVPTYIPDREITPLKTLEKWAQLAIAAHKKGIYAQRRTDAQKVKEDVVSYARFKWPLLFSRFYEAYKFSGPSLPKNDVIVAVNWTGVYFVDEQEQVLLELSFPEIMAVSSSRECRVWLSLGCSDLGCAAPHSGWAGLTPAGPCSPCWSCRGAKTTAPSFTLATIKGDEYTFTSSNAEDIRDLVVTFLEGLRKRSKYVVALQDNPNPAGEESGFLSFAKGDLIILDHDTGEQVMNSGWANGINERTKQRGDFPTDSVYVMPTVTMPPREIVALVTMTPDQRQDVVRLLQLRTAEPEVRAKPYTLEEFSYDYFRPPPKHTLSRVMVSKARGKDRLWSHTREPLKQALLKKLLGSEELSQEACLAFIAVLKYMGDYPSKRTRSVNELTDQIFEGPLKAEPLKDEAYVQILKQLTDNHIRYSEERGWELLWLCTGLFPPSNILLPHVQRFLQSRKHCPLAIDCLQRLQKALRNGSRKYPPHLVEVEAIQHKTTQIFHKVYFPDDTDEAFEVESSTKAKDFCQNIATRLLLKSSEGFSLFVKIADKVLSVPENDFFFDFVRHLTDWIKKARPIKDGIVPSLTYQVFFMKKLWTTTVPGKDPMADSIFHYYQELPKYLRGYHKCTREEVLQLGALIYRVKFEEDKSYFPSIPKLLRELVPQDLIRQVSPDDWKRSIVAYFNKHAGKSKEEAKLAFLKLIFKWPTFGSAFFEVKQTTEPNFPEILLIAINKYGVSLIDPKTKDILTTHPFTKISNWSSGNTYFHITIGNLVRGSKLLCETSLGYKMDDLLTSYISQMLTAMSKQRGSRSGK

- Kd: 681.2 ± 5.63 µM
Structure (SMILES): Nc1ncnc2c1ncn2[C@@H]1O[C@H](COP(=O)(O)OP(=O)(O)OP(=O)(O)O)[C@@H](O)[C@H]1O [ATP]
